Measurements published in patent US4839344A, “Polypeptide compounds having growth hormone releasing activity” (Eastman Kodak Company, priority 1987, dated 1989).
“And” between values parts separate entries of the source, which are not always exact repeats. Identical values can stand only once. Square brackets hold non-standard residues; d marks the D form. Ends that are not written are not given here.

System: growth hormone (GH) release
Assay: In Vivo GH Release in Rats (serum GH by RIA)
Design: species or system immature female Sprague-Dawley rats
Conditions: rat serum, i.v., mean ± SEM, six rats
[1] = total dose 10 μg, sacrificed 10 minutes after final injection

Substance | GH Released by Compound in Column A [1] | GH Released by Compound in Column A (total dose 20 (ng as printed), sacrificed 30 minutes after final injection) [ng/mL]
AC[dW]AW[dF]KC-NH2 (cysteine pairing not given here) [Compound 9308] | 10 ± 1 ng/mL | –
CAH[dW]AW[dF]KC-NH2 (cysteine pairing not given here) [Compound 8758] | 37 ± 8 ng/mL and 26 ± 9 ng/mL | 52 ± 7
